Source: publication PMC10175918 (Communications Biology, 2023)
Read-outs that look alike come from different tables or passages of the source. One block for each compound: values may come before it.

Key:
Assay in all cases: TGFα-shedding assay-based GPCR screening with chimeric Gα subunit proteins
Type in all cases: cell-based
348 GPCRs [1] = target: T1, 348 GPCRs (Homo sapiens, UniProt Q8TDV0); conditions: 10µM, Favipiravir 100μM
T1 construct: expressed in transfected cells; host or cells: HEK293A
T1 sequence (Q8TDV0 1-419): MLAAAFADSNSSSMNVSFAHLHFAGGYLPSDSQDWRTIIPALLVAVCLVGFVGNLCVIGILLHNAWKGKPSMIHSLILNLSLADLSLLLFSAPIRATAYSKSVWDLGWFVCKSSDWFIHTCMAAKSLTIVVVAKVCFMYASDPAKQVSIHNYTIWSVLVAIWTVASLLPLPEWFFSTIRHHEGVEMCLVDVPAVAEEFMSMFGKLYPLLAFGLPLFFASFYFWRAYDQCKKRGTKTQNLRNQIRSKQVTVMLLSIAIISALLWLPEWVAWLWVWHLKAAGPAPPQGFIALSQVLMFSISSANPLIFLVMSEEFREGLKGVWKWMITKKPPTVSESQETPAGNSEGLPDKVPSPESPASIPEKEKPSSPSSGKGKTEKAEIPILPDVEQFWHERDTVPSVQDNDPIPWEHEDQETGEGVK

348 GPCRs [2] = target: T2, 348 GPCRs (Homo sapiens, UniProt Q96P68)
T2 construct: expressed in transfected cells; host or cells: HEK293A

348 GPCRs [3] = target: T3, 348 GPCRs (Homo sapiens, UniProt P29274); conditions: ADORA2A (adenosine A2a receptor); 10µM, Favipiravir 100μM
T3 construct: expressed in transfected cells; host or cells: HEK293A

348 GPCRs [4] = target: T4, 348 GPCRs (Homo sapiens, UniProt P41231)
T4 construct: expressed in transfected cells; host or cells: HEK293A

348 GPCRs [5] = target: T5, 348 GPCRs (Homo sapiens, UniProt P47890); conditions: 10µM, Favipiravir 100μM
T5 construct: expressed in transfected cells; host or cells: HEK293A
T5 sequence (P47890 1-313): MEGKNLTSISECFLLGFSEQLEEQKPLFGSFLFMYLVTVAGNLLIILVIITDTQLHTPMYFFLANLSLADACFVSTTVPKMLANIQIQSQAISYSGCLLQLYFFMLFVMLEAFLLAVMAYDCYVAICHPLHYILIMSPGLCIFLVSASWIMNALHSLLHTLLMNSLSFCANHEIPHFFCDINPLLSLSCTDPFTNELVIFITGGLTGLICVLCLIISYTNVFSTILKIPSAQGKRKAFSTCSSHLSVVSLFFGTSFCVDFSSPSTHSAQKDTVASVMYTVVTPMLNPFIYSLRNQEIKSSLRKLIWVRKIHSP

348 GPCRs [6] = target: T6, 348 GPCRs (Homo sapiens, UniProt P33032)
T6 construct: expressed in transfected cells; host or cells: HEK293A

348 GPCRs [7] = target: T7, 348 GPCRs (Homo sapiens, UniProt Q9HBX9); conditions: RXFP1 (relaxin/insulin-like family peptide receptor 1); 10µM, Favipiravir 100μM
T7 construct: expressed in transfected cells; host or cells: HEK293A
T7 sequence (Q9HBX9 1-757): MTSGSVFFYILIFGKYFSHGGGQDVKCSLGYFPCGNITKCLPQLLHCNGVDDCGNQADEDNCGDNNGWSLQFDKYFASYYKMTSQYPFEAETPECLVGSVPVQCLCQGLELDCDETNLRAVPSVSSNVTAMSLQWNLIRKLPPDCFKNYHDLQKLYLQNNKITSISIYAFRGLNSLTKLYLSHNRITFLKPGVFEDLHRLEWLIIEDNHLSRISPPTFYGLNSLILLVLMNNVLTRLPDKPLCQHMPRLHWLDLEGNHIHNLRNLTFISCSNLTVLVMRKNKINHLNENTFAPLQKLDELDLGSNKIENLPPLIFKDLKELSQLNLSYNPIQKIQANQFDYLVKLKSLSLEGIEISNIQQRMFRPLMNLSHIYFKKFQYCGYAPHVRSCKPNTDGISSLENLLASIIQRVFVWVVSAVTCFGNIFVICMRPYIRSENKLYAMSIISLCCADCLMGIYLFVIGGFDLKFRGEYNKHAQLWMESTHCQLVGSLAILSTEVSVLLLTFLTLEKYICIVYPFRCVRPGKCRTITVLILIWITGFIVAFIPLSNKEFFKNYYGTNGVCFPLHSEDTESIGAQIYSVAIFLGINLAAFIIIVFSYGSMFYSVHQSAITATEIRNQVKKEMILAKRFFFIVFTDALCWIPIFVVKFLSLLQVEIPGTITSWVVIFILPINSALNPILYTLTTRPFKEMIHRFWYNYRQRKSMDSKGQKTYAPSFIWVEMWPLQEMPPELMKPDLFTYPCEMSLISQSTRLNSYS

348 GPCRs [8] = target: 348 GPCRs (Homo sapiens, UniProt O43193); conditions: 10µM, Favipiravir 100μM
348 GPCRs [9] = target: T8, 348 GPCRs (Homo sapiens, UniProt Q8TDV2); conditions: 10µM, Favipiravir 100μM
T8 construct: expressed in transfected cells; host or cells: HEK293A

348 GPCRs [10] = target: T9, 348 GPCRs (Homo sapiens, UniProt P49190); conditions: 10µM, Favipiravir 100μM
T9 construct: expressed in transfected cells; host or cells: HEK293A

[11] = GPR151 (G Protein-Coupled Receptor 151), read-out: % GPCR activation compared to TPA
[12] = GPCR OXGR1 (oxoglutarate (alpha-ketoglutarate) receptor 1), read-out: % GPCR activation compared to TPA
[13] = GPCR P2Y2 (purinergic receptor P2Y, G-protein coupled, 2), read-out: % GPCR activation compared to TPA
[14] = OR1G1 (olfactory receptor, family 1, subfamily G, member 1), read-out: % GPCR activation compared to TPA
[15] = GPCR MC5R (melanocortin 5 receptor), read-out: % GPCR activation compared to TPA
[16] = MLNR (motilin receptor), read-out: % GPCR activation compared to TPA
[17] = GPR148 (G Protein-Coupled Receptor 148), read-out: % GPCR activation compared to TPA
[18] = PTH2R (parathyroid hormone 2 receptor), read-out: % GPCR activation compared to TPA
[19] = read-out: % GPCR activation compared to TPA, GPR151 (G Protein-Coupled Receptor 151)
[20] = read-out: % GPCR activation compared to TPA, GPCR OXGR1 (oxoglutarate (alpha-ketoglutarate) receptor 1)
[21] = read-out: % GPCR activation compared to TPA, GPCR P2Y2 (purinergic receptor P2Y, G-protein coupled, 2)
[22] = read-out: % GPCR activation compared to TPA, OR1G1 (olfactory receptor, family 1, subfamily G, member 1)
[23] = read-out: % GPCR activation compared to TPA, GPCR MC5R (melanocortin 5 receptor)
[24] = read-out: % GPCR activation compared to TPA, MLNR (motilin receptor)
[25] = read-out: % GPCR activation compared to TPA, GPR148 (G Protein-Coupled Receptor 148)
[26] = read-out: % GPCR activation compared to TPA, PTH2R (parathyroid hormone 2 receptor)

T8 sequence (Q8TDV2 whole entry): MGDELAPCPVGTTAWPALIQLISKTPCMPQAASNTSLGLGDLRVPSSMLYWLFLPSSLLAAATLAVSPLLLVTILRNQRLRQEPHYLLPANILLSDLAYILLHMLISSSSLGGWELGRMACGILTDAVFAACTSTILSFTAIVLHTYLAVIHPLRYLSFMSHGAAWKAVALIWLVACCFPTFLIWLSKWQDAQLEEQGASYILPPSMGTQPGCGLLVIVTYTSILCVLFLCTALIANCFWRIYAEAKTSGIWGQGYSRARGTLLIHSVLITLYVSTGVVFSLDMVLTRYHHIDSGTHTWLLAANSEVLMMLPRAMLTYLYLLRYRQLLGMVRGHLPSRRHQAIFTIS
T9 sequence (P49190 25-550): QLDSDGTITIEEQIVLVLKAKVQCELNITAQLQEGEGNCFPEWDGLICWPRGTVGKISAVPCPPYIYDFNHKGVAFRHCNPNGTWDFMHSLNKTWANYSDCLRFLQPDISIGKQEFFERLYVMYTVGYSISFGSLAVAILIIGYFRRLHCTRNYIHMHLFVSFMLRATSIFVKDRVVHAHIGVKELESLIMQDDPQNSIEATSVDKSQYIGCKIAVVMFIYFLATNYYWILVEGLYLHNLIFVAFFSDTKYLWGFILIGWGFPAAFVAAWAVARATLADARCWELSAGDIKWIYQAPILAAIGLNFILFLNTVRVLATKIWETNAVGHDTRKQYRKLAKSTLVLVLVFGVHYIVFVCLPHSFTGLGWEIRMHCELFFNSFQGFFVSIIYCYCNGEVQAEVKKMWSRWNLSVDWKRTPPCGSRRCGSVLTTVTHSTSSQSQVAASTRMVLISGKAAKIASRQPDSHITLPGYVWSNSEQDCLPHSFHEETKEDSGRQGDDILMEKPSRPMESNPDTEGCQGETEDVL
T6 sequence (P33032 whole entry): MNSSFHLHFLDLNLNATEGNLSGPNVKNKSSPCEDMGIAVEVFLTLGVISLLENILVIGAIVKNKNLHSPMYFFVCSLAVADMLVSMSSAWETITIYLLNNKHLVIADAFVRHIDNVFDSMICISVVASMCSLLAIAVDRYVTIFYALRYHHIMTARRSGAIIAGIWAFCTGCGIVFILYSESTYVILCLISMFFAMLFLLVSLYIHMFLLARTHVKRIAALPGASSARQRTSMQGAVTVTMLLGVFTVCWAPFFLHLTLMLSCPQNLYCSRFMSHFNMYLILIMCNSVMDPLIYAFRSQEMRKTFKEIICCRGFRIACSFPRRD
T3 sequence (P29274 whole entry): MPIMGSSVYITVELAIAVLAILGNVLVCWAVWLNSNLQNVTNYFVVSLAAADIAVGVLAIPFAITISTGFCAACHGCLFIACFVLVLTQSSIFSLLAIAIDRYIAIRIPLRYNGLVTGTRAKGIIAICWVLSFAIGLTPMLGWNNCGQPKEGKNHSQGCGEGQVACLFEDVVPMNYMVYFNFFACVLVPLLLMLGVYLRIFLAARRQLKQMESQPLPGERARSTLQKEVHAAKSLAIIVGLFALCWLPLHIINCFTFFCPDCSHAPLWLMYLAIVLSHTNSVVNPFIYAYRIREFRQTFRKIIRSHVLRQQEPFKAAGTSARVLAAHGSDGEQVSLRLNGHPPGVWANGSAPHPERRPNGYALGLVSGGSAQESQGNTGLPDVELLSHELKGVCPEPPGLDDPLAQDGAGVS
T4 sequence (P41231 whole entry): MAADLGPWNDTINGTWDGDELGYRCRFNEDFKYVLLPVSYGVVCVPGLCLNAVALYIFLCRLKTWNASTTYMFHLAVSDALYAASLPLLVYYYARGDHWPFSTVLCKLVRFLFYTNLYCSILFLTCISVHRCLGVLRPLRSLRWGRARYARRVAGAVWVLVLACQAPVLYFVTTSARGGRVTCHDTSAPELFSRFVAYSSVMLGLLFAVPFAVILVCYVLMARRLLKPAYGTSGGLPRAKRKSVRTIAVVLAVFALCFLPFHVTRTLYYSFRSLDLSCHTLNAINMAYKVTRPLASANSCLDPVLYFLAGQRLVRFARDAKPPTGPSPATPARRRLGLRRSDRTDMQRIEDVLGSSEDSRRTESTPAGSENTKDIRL
Chain of 348 GPCRs (Homo sapiens, UniProt O43193) (O43193 whole entry): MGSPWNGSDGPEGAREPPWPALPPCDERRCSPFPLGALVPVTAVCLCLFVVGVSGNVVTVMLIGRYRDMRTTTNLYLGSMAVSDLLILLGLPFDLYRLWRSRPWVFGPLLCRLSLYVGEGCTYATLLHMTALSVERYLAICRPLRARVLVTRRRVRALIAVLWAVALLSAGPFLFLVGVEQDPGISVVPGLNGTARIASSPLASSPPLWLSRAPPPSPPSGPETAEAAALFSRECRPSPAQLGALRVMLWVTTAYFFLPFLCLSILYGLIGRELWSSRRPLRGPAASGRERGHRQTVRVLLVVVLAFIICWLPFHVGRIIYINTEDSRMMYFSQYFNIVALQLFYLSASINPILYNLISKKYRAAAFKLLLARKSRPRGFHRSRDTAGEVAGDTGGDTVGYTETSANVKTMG

Structure (SMILES): N#C[C@@]1(c2ccc3c(N)ncnn23)O[C@H](CO)[C@@H](O)[C@H]1O [GS441524]
activation at 10 µM (348 GPCRs [1]; [11]): -2.28%
activation at 10 µM (348 GPCRs [2]; [12]): -0.462%
% GPCR activation compared to TPA (348 GPCRs [3]): 1.631%
activation at 10 µM (348 GPCRs [4]; [13]): -17.2%
activation at 10 µM (348 GPCRs [5]; [14]): -1.68%
activation at 10 µM (348 GPCRs [6]; [15]): 0.908%
% GPCR activation compared to TPA (348 GPCRs [7]): -1.093%
activation at 100 µM (348 GPCRs [8]; [16]): -7.84%
activation at 100 µM (348 GPCRs [9]; [17]): -2.05%
activation at 100 µM (348 GPCRs [10]; [18]): -1.76%

Structure (SMILES): CCC(CC)COC(=O)[C@H](C)N[P@](=O)(OC[C@H]1O[C@@](C#N)(c2ccc3c(N)ncnn23)[C@H](O)[C@@H]1O)Oc1ccccc1 [remdesivir]
activation at 10 µM (348 GPCRs [1]; [19]): -3.65%
activation at 10 µM (348 GPCRs [2]; [20]): 0.444%
% GPCR activation compared to TPA (348 GPCRs [3]): 3.955%
activation at 10 µM (348 GPCRs [4]; [21]): -6.22%
activation at 10 µM (348 GPCRs [5]; [22]): -1.69%
activation at 10 µM (348 GPCRs [6]; [23]): 1.31%
% GPCR activation compared to TPA (348 GPCRs [7]): -0.5639%
activation at 100 µM (348 GPCRs [8]; [24]): -3.19%
activation at 100 µM (348 GPCRs [9]; [25]): -2.35%
activation at 100 µM (348 GPCRs [10]; [26]): 0.518%

Structure (SMILES): CC(C)OC(=O)[C@H](C)N[P@](=O)(OC[C@H]1O[C@@H](n2ccc(=O)[nH]c2=O)[C@](C)(F)[C@@H]1O)Oc1ccccc1 [sofosbuvir]
activation at 10 µM (348 GPCRs [1]; [19]): -2.06%
activation at 10 µM (348 GPCRs [2]; [20]): 1.77%
% GPCR activation compared to TPA (348 GPCRs [3]): -2.149%
activation at 10 µM (348 GPCRs [4]; [21]): -41.7%
activation at 10 µM (348 GPCRs [5]; [22]): -2.98%
activation at 10 µM (348 GPCRs [6]; [23]): -2.87%
% GPCR activation compared to TPA (348 GPCRs [7]): 0.4557%
activation at 100 µM (348 GPCRs [8]; [24]): -0.32%
activation at 100 µM (348 GPCRs [9]; [25]): -1.48%
activation at 100 µM (348 GPCRs [10]; [26]): -1.19%

Further lines, results first:

activation at 10 µM (348 GPCRs [1]; [11]): -0.974%
activation at 100 µM (348 GPCRs [2]; GPCR OXGR1 (oxoglutarate (alpha-ketoglutarate) receptor 1), 100μM, read-out: % GPCR activation compared to TPA): -1.07%
% GPCR activation compared to TPA (348 GPCRs [3]): 2.3424%
activation at 100 µM (348 GPCRs [4]; GPCR P2Y2 (purinergic receptor P2Y, G-protein coupled, 2), 100μM, read-out: % GPCR activation compared to TPA): -23%
activation at 10 µM (348 GPCRs [5]; [14]): 0.965%
activation at 100 µM (348 GPCRs [6]; GPCR MC5R (melanocortin 5 receptor), 100μM, read-out: % GPCR activation compared to TPA): -0.921%
% GPCR activation compared to TPA (348 GPCRs [7]): 0.2738%
activation at 100 µM (348 GPCRs [8]; [16]): -4.07%
activation at 100 µM (348 GPCRs [9]; [17]): -3.11%
activation at 100 µM (348 GPCRs [10]; [18]): 0.392%
Structure (SMILES): NC(=O)c1nc(F)cnc1O [favipiravir, 6-fluoro-3-hydroxy-2-pyrazinecarboxamide]

activation at 10 µM (348 GPCRs [1]; [11]): -2.68%
activation at 10 µM (348 GPCRs [2]; [12]): 0.239%
% GPCR activation compared to TPA (348 GPCRs [3]): -1.952%
activation at 10 µM (348 GPCRs [4]; [13]): -58.1%
activation at 10 µM (348 GPCRs [5]; [14]): -3.31%
activation at 10 µM (348 GPCRs [6]; [15]): -1.47%
% GPCR activation compared to TPA (348 GPCRs [7]): -0.9572%
activation at 100 µM (348 GPCRs [8]; [16]): -1.09%
activation at 100 µM (348 GPCRs [9]; [17]): -3.32%
activation at 100 µM (348 GPCRs [10]; [18]): -0.481%
Structure (SMILES): CC(C)C(=O)OC[C@H]1O[C@@H](n2ccc(NO)nc2=O)[C@H](O)[C@@H]1O [molnupiravir]
